# Data: patent US7196063B1, “Peptides and pharmaceutical compositions comprising same” (NST NeuroSurvival Technologies Ltd., priority 1999, dated 2007)
# “Also recorded” adds a separate entry of the source.
# Assays:
# apoptotic HeLa cells [1] = assay: Binding to single apoptotic HeLa cells, fluorescent microscopy; format: cell-based
# Procedure: Chamber slides were pre-coated with 0.1% gelatin (G-1393 Sigma). Cells were seeded at a density of 8×10^4 cells/chamber, in a volume of 300 μl of culture medium. Apoptosis was induced by treatment with dopamine (RBI, MA, USA). Following 24 hours of incubation, the medium was replaced by a low serum-containing medium (2% FCS), with 500 μM of dopamine, for 18 hours. Non-treated cells that served as control, were kept in the growing medium without dopamine.
# For evaluation of apoptosis, cells were stained with 1 mg/ml of Hoechst 33342 dye (Molecular probes). Twenty minutes later, cells were visualized under UV light microscopy and the relative number of apoptotic cells with condensed or fragmented chromatin was then evaluated and compared with non-apoptotic cells, showing a pale and diffuse staining. Photomicrographs were taken for documentation, but are not shown here. For staining with NST500 compounds, the tested cultures were grown as specified above and washed twice with TBS (Tris Buffered Saline; 10 mM Tris PH 8.0; 150 mM NaCl). […]
# As a positive control, binding of Annexin V was performed using commercial kit (Genzyme, Mass.). Binding was evaluated with a fluorescent microscope (IX70; Olympus), using an NIBA filter (Narrow Interference Blue A from Olympus) and a ×400 magnification. […]
# BeWo cells = assay: Binding to single trophoblast BeWo cells, fluorescent microscopy; format: cell-based, Human
# Procedure: The Human choriocarcinoma cell line BeWo that express low levels of PS on its plasma membrane (Rote N S et al., 1995, American J. of Reproductive Immunology 33, 114–121), was obtained from ECACC, cat # 86082803 and maintained in Ham's F12+ medium (01095-1A, Bet-Haemek, Israel). The medium was supplemented with 2mM of L-Glutamine; 100 units/ml of penicillin; 100 μg/ml of streptomycin, and 10% fetal calf serum (Bet-Haemek). The cells were passaged using 0.05% trypsine/EDTA (03-054-1B, Bet-Haemek,).
# activated platelets = conditions: 2 μM
# Procedure: Exposure of PS on the outer leaflet of platelets upon their activation is essential for efficient activation of coagulation factors. […] Fresh platelets were received from the Blood Bank in Beilinson Hospital, Israel. The platelets were centrifuged (10 minutes, 2700×g), washed and re-suspended in platelets buffer (137 mM NaCl, 2 mM MgCl2, 0.5 mM NaPi, 5 mM glucose and 20 mM Hepes pH 7.4). 100 μl of platelets were diluted 10 fold and activated for 10 minutes with 2 μM of the calcium ionophore A23187 in the presence of 5 mM of CaCl2. […] The platelets were then washed with platelets buffer and incubated with 5 μg/ml of streptavidin conjugated to fluorescein (FITC). Incubation was for 15 minutes at room temperature, followed by a wash and suspention in platelets buffer. The labeled platelets were subjected to a FACS analysis as described above.
# apoptotic HeLa cells [2] = assay: Modified APTT test with apoptotic HeLa cells as pro-coagulant surface; format: cell-based
# Procedure: Apoptotic and control HeLa cells were prepared as described for the FACS analysis. Equal numbers of apoptotic or control non-treated cells (5×10^4) in a volume of […], were mixed with 100 μl of normal plasma, incubated for 1 min at 37° C. in a bath and then calcified by addition of 100 μl of 25 mM CaCl2, and clotting time was measured. Inhibition of the pro-coagulant activity of the apoptotic cells by NST500 compounds was tested following pre-incubation of apoptotic cells for 20 min. at room temperature with increased concentrations of the different NST 500 compounds.
# The results can be seen in FIG. 4B.
# HUVEC cells [3] = assay: Thrombin generation by HUVEC cells; format: cell-based, Human
# Excerpt: In vivo, vascular endothelial cells are known to catalyze the formation of thrombin, due to expression of PS on their plasma membrane, at which pro-coagulant complexes are assembled (Van Hardee W L et al., 1994, Biochem J. 302, 305–312). Endothelial cells (EC) play an active role in determining the pro-coagulant/anti-coagulant balance in the vascular system (Gimborne M A et al., 1995, Ann. N. Y. Acad Sci 748, 122–132). Perturbed endothelial cells dramatically increase their pro-coagulant state. […] (FIG. 4D). When HUVEC cells (1.5×10^5) were incubated with the S-2366 substrate, thrombin generation was evident after a lag time of 12.5 minutes, which reflects the time required to assemble a functional complex on the HUVEC surface.
# The effect of NST516 compound on HUVEC mediated-thrombin generation was studied.
# HUVEC cells [4] = assay: Cell-ELISA: binding of anti β2GPI antibodies to HUVEC cells; format: cell-based, Human
# Procedure: Human β2GPI is a plasma phospholipid binding protein that is required for the binding of autoantibodies in sera from patients with APS to cardiolipin (McNeil H P et al., 1990 Proc. Natl. Acad. Sci. 87, 4120–4124). […] Anti β2GPI antibodies are present in sera of APS patients. […] For cell-ELISA tests, HUVEC cells (at 40,000/well), were plated on 96 well tissue culture plates (Nunc) in 200 μl of the culture medium, and allowed to grow for 18–22 hours. Following 2 washes with Hepes buffer (10 mM Hepes pH 8, 140 mM NaCl) and 5 min incubation with the culture medium, the wells were incubated for 3 hr with 10% of normal plasma in PBS (as a source of β2 GPI protein), supplemented with 1/500 of goat anti-human Apolipoprotein-H (β2 GPI) (Affinity biologicals, PA). Parallel control wells were incubated with 10% of normal plasma from Ilex. Serial dilutions of NST500 compounds were prepared in plasma/PBS. Washes and development were as described for anti CL ELISA.
# As presented in FIG. 5B, in the presence of plasma and absence of NST500, HUVEC cells supported binding of anti β2GPI to their surface. However, displacement of anti β2GPI by NST500 compounds in this system occurred in a concentration dependent manner, similar to the results obtained with CL.
substance,measurement,setting,value
Myristate-KVSFFCKNKEKKC-K (SEQ ID NO:1) (biotin) [NST513],labeling of apoptotic HeLa cells,apoptotic HeLa cells [1],potent detector of apoptotic cells
same,labeling of control non-treated HeLa cells,apoptotic HeLa cells [1],did not exhibit significant labeling
same,binding to BeWo cells,BeWo cells,Typical membrane labeling is observed; also recorded: Binding of the compound to the whole population of BeWo cells was demonstrated
same,"binding intensity (FITC mean value), activated vs control non-treated platelets",activated platelets,20 times
same,increase in the percentage of platelets stained with FITC upon activation,activated platelets; activated (A23187) vs control platelets,6 fold
same,effect on clotting time of apoptotic cells,apoptotic HeLa cells [2]; 2.5–2.2 μM,marked and dose dependent inhibition of clotting time; also recorded: dose-dependent effect
same,increase of clotting time of apoptotic cells (factor),apoptotic HeLa cells [2]; 2.5–2.2 μM,3.2 times
same,clotting time of apoptotic cells,"apoptotic HeLa cells [2]; apoptotic cells alone 50 seconds, control cells 80 seconds",160 s
same,delay in thrombin generation,HUVEC cells [3],2.5 min
same,thrombin generation by HUVEC cells,HUVEC cells [3],dramatic inhibition of thrombin generation; also recorded: fully block thrombin generation; also recorded: slight inhibition of thrombin generation; also recorded: further delayed the lag period; also recorded: total blockage of thrombin formation
same,"thrombin generation by HUVEC cells, dose response",HUVEC cells [3],dose dependent inhibition of thrombin generation
same,less potent than NST516 in blocking anti β2 GPI binding,HUVEC cells [4],50%
